We go through 3 molecules from ChEMBL document CHEMBL3785092, “Synthesis and biological evaluation of novel tetrahydroisoquinoline-C-aryl glucosides as SGLT2 inhibitors for the treatment of type 2 diabetes” (Eur J Med Chem, 2016).

The test deals with T1, Sodium/glucose cotransporter 2 (Homo sapiens) (UniProt P31639).
T1 sequence (whole entry): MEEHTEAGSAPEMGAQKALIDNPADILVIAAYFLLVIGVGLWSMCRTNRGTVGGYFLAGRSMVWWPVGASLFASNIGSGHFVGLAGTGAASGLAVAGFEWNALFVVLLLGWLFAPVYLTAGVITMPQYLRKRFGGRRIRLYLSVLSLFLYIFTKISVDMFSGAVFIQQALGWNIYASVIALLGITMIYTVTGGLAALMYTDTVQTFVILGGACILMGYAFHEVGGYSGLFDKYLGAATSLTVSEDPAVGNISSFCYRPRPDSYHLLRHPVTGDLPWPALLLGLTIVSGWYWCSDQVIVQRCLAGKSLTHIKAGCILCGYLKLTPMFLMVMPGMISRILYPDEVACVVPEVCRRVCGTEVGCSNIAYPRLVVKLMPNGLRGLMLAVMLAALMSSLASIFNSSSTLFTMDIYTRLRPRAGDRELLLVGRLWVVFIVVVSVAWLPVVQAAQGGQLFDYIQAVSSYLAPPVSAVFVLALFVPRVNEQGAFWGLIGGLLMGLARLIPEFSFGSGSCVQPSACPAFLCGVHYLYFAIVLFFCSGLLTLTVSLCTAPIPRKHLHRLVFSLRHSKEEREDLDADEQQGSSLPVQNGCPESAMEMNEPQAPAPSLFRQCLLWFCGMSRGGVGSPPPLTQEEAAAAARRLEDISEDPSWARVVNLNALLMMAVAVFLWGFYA
Kind of test: Inhibition of human SGLT2 expressed in CHO cells assessed as reduction in [14C]AMG uptake at 10 uM after 1 hr by liquid scintillation counting method relative to control. Format: cell-based.
One may read the inhibition as the change of the read-out against control, counted positive when it falls. For `COc1ccc(C[C@@H]2NCCc3ccc([C@@H]4O[C@H](CO)[C@@H](O)[C@H](O)[C@H]4O)cc32)cc1`, the inhibition was 32.1%.
With `CCOc1ccc(Cc2cc([C@@H]3O[C@H](CO)[C@@H](O)[C@H](O)[C@H]3O)ccc2Cl)cc1` the figure was 85.4%; with `OC[C@H]1O[C@@H](c2ccc3c(c2)[C@H](c2ccc4c(c2)OCO4)NCC3)[C@H](O)[C@@H](O)[C@@H]1O`, 49.7%.
